{"source": "the supplement of paper PMC10307832", "assay_in_all_cases": "relative viability (nuclei count vs DMSO), 5 days (fraction); higher = more cells survive", "key": {"NCI-H322M": {"tested_on": "NCI-H322M", "summary_of_the_method": "(§1)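 Each reported value is a median over duplicate plates. It expresses relative viability: treated-well nuclei count divided by vehicle-well nuclei count. Lung cancer cell lines in 1536-well plates were dosed by pin tool a day after seeding, alone with one drug or with a fixed anchor-drug dose plus five library-drug doses (not always all listed) in √10 steps, and nuclei were counted after 5 days.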"}, "EMC-BAC-2": {"tested_on": "EMC-BAC-2", "summary_of_the_method": "as §1"}, "H3255": {"tested_on": "H3255", "summary_of_the_method": "as §1"}, "EPLC-272H": {"tested_on": "EPLC-272H", "summary_of_the_method": "as §1"}, "UMC-11": {"tested_on": "UMC-11", "summary_of_the_method": "as §1"}, "SK-MES-1": {"tested_on": "SK-MES-1", "summary_of_the_method": "as §1"}, "LCLC-97TM1": {"tested_on": "LCLC-97TM1", "summary_of_the_method": "as §1"}, "NCI-H2023": {"tested_on": "NCI-H2023", "summary_of_the_method": "as §1"}, "NCI-H650": {"tested_on": "NCI-H650", "summary_of_the_method": "as §1"}, "NCI-H1355": {"tested_on": "NCI-H1355", "summary_of_the_method": "as §1"}, "NCI-H520": {"tested_on": "NCI-H520", "summary_of_the_method": "as §1"}, "LCLC-103H": {"tested_on": "LCLC-103H", "summary_of_the_method": "as §1"}, "HCC-827": {"tested_on": "HCC-827", "summary_of_the_method": "as §1"}, "NCI-H1563": {"tested_on": "NCI-H1563", "summary_of_the_method": "as §1"}, "NCI-H1651": {"tested_on": "NCI-H1651", "summary_of_the_method": "as §1"}, "NCI-H1793": {"tested_on": "NCI-H1793", "summary_of_the_method": "as §1"}, "NCI-H2087": {"tested_on": "NCI-H2087", "summary_of_the_method": "as §1"}, "NCI-H1944": {"tested_on": "NCI-H1944", "summary_of_the_method": "as §1"}, "ChaGo-K-1": {"tested_on": "ChaGo-K-1", "summary_of_the_method": "as §1"}, "NCI-H2085": {"tested_on": "NCI-H2085", "summary_of_the_method": "as §1"}, "NCI-H2405": {"tested_on": "NCI-H2405", "summary_of_the_method": "as §1"}, "HCC-44": {"tested_on": "HCC-44", "summary_of_the_method": "as §1"}, "NCI-H1395": {"tested_on": "NCI-H1395", "summary_of_the_method": "as §1"}}, "data": [{"molecule": "Oc1nc(-c2ccc(C(F)(F)F)cc2)nc2c1CSCC2", "note": "[XAV939] + N=C(N)NC(=N)NCCc1ccccc1 [Phenformin] (partner 250 µM)", "values": [{"measurement": "relative viability", "setting": "NCI-H322M; first compound 0.08 µM", "value": 0.88}, {"measurement": "relative viability", "setting": "NCI-H322M; first compound 0.253 µM", "value": 0.716}, {"measurement": "relative viability", "setting": "NCI-H322M; first compound 0.8 µM", "value": 0.625}, {"measurement": "relative viability", "setting": "NCI-H322M; first compound 2.53 µM", "value": 0.578}, {"measurement": "relative viability", "setting": "EMC-BAC-2; first compound 0.08 µM", "value": 0.551}, {"measurement": "relative viability", "setting": "EMC-BAC-2; first compound 0.253 µM", "value": 0.459}, {"measurement": "relative viability", "setting": "EMC-BAC-2; first compound 0.8 µM", "value": 0.424}, {"measurement": "relative viability", "setting": "EMC-BAC-2; first compound 2.53 µM", "value": 0.288}, {"measurement": "relative viability", "setting": "H3255; first compound 0.08 µM", "value": 0.415}, {"measurement": "relative viability", "setting": "H3255; first compound 0.253 µM", "value": 0.397}, {"measurement": "relative viability", "setting": "H3255; first compound 0.8 µM", "value": 0.381}, {"measurement": "relative viability", "setting": "H3255; first compound 2.53 µM", "value": 0.375}, {"measurement": "relative viability", "setting": "EPLC-272H; first compound 0.08 µM", "value": 0.311}, {"measurement": "relative viability", "setting": "EPLC-272H; first compound 0.253 µM", "value": 0.316}, {"measurement": "relative viability", "setting": "EPLC-272H; first compound 0.8 µM", "value": 0.308}, {"measurement": "relative viability", "setting": "EPLC-272H; first compound 2.53 µM", "value": 0.325}, {"measurement": "relative viability", "setting": "UMC-11; first compound 0.08 µM", "value": 0.328}, {"measurement": "relative viability", "setting": "UMC-11; first compound 0.253 µM", "value": 0.32}, {"measurement": "relative viability", "setting": "UMC-11; first compound 0.8 µM", "value": 0.248}, {"measurement": "relative viability", "setting": "UMC-11; first compound 2.53 µM", "value": 0.201}, {"measurement": "relative viability", "setting": "SK-MES-1; first compound 0.08 µM", "value": 0.759}, {"measurement": "relative viability", "setting": "SK-MES-1; first compound 0.253 µM", "value": 0.643}, {"measurement": "relative viability", "setting": "SK-MES-1; first compound 0.8 µM", "value": 0.613}, {"measurement": "relative viability", "setting": "SK-MES-1; first compound 2.53 µM", "value": 0.631}, {"measurement": "relative viability", "setting": "LCLC-97TM1; first compound 0.08 µM", "value": 0.474}, {"measurement": "relative viability", "setting": "LCLC-97TM1; first compound 0.253 µM", "value": 0.352}, {"measurement": "relative viability", "setting": "LCLC-97TM1; first compound 0.8 µM", "value": 0.434}, {"measurement": "relative viability", "setting": "LCLC-97TM1; first compound 2.53 µM", "value": 0.373}, {"measurement": "relative viability", "setting": "NCI-H2023; first compound 0.08 µM", "value": 0.424}, {"measurement": "relative viability", "setting": "NCI-H2023; first compound 0.253 µM", "value": 0.391}, {"measurement": "relative viability", "setting": "NCI-H2023; first compound 0.8 µM", "value": 0.365}, {"measurement": "relative viability", "setting": "NCI-H2023; first compound 2.53 µM", "value": 0.402}, {"measurement": "relative viability", "setting": "NCI-H650; first compound 0.08 µM", "value": 0.474}, {"measurement": "relative viability", "setting": "NCI-H650; first compound 0.253 µM", "value": 0.494}, {"measurement": "relative viability", "setting": "NCI-H650; first compound 0.8 µM", "value": 0.439}, {"measurement": "relative viability", "setting": "NCI-H650; first compound 2.53 µM", "value": 0.414}, {"measurement": "relative viability", "setting": "NCI-H1355; first compound 0.08 µM", "value": 0.455}, {"measurement": "relative viability", "setting": "NCI-H1355; first compound 0.253 µM", "value": 0.428}, {"measurement": "relative viability", "setting": "NCI-H1355; first compound 0.8 µM", "value": 0.43}, {"measurement": "relative viability", "setting": "NCI-H1355; first compound 2.53 µM", "value": 0.435}, {"measurement": "relative viability", "setting": "NCI-H520; first compound 0.08 µM", "value": 0.58}, {"measurement": "relative viability", "setting": "NCI-H520; first compound 0.253 µM", "value": 0.51}, {"measurement": "relative viability", "setting": "NCI-H520; first compound 0.8 µM", "value": 0.526}, {"measurement": "relative viability", "setting": "NCI-H520; first compound 2.53 µM", "value": 0.401}, {"measurement": "relative viability", "setting": "LCLC-103H; first compound 0.08 µM", "value": 0.369}, {"measurement": "relative viability", "setting": "LCLC-103H; first compound 0.253 µM", "value": 0.29}, {"measurement": "relative viability", "setting": "LCLC-103H; first compound 0.8 µM", "value": 0.304}, {"measurement": "relative viability", "setting": "LCLC-103H; first compound 2.53 µM", "value": 0.315}, {"measurement": "relative viability", "setting": "HCC-827; first compound 0.08 µM", "value": 0.364}, {"measurement": "relative viability", "setting": "HCC-827; first compound 0.253 µM", "value": 0.421}, {"measurement": "relative viability", "setting": "HCC-827; first compound 0.8 µM", "value": 0.452}, {"measurement": "relative viability", "setting": "HCC-827; first compound 2.53 µM", "value": 0.394}, {"measurement": "relative viability", "setting": "NCI-H1563; first compound 0.08 µM", "value": 0.616}, {"measurement": "relative viability", "setting": "NCI-H1563; first compound 0.253 µM", "value": 0.681}, {"measurement": "relative viability", "setting": "NCI-H1563; first compound 0.8 µM", "value": 0.594}, {"measurement": "relative viability", "setting": "NCI-H1563; first compound 2.53 µM", "value": 0.636}, {"measurement": "relative viability", "setting": "NCI-H1651; first compound 0.08 µM", "value": 0.359}, {"measurement": "relative viability", "setting": "NCI-H1651; first compound 0.253 µM", "value": 0.31}, {"measurement": "relative viability", "setting": "NCI-H1651; first compound 0.8 µM", "value": 0.353}, {"measurement": "relative viability", "setting": "NCI-H1651; first compound 2.53 µM", "value": 0.302}, {"measurement": "relative viability", "setting": "NCI-H1793; first compound 0.08 µM", "value": 0.495}, {"measurement": "relative viability", "setting": "NCI-H1793; first compound 0.253 µM", "value": 0.389}, {"measurement": "relative viability", "setting": "NCI-H1793; first compound 0.8 µM", "value": 0.302}, {"measurement": "relative viability", "setting": "NCI-H1793; first compound 2.53 µM", "value": 0.354}, {"measurement": "relative viability", "setting": "NCI-H2087; first compound 0.08 µM", "value": 0.6}, {"measurement": "relative viability", "setting": "NCI-H2087; first compound 0.253 µM", "value": 0.455}, {"measurement": "relative viability", "setting": "NCI-H2087; first compound 0.8 µM", "value": 0.433}, {"measurement": "relative viability", "setting": "NCI-H2087; first compound 2.53 µM", "value": 0.395}, {"measurement": "relative viability", "setting": "NCI-H1944; first compound 0.08 µM", "value": 0.233}, {"measurement": "relative viability", "setting": "NCI-H1944; first compound 0.253 µM", "value": 0.198}, {"measurement": "relative viability", "setting": "NCI-H1944; first compound 0.8 µM", "value": 0.199}, {"measurement": "relative viability", "setting": "NCI-H1944; first compound 2.53 µM", "value": 0.17}, {"measurement": "relative viability", "setting": "ChaGo-K-1; first compound 0.08 µM", "value": 0.51}, {"measurement": "relative viability", "setting": "ChaGo-K-1; first compound 0.253 µM", "value": 0.476}, {"measurement": "relative viability", "setting": "ChaGo-K-1; first compound 0.8 µM", "value": 0.412}, {"measurement": "relative viability", "setting": "ChaGo-K-1; first compound 2.53 µM", "value": 0.409}, {"measurement": "relative viability", "setting": "NCI-H2085; first compound 0.08 µM", "value": 0.741}, {"measurement": "relative viability", "setting": "NCI-H2085; first compound 0.253 µM", "value": 0.686}, {"measurement": "relative viability", "setting": "NCI-H2085; first compound 0.8 µM", "value": 0.737}, {"measurement": "relative viability", "setting": "NCI-H2085; first compound 2.53 µM", "value": 0.653}, {"measurement": "relative viability", "setting": "NCI-H2405; first compound 0.08 µM", "value": 0.373}, {"measurement": "relative viability", "setting": "NCI-H2405; first compound 0.253 µM", "value": 0.399}, {"measurement": "relative viability", "setting": "NCI-H2405; first compound 0.8 µM", "value": 0.363}, {"measurement": "relative viability", "setting": "NCI-H2405; first compound 2.53 µM", "value": 0.413}, {"measurement": "relative viability", "setting": "HCC-44; first compound 0.08 µM", "value": 0.239}, {"measurement": "relative viability", "setting": "HCC-44; first compound 0.253 µM", "value": 0.219}, {"measurement": "relative viability", "setting": "HCC-44; first compound 0.8 µM", "value": 0.221}, {"measurement": "relative viability", "setting": "HCC-44; first compound 2.53 µM", "value": 0.259}, {"measurement": "relative viability", "setting": "NCI-H1395; first compound 0.08 µM", "value": 0.429}, {"measurement": "relative viability", "setting": "NCI-H1395; first compound 0.253 µM", "value": 0.443}, {"measurement": "relative viability", "setting": "NCI-H1395; first compound 0.8 µM", "value": 0.438}, {"measurement": "relative viability", "setting": "NCI-H1395; first compound 2.53 µM", "value": 0.462}]}]}
